17 compounds from ChEMBL document CHEMBL4422689, “Discovery of 4'-OH-flurbiprofen Mannich base derivatives as potential Alzheimer's disease treatment with multiple inhibitory activities” (Bioorg Med Chem, 2019) can be followed below.

Molecules are shown by their SMILES. Activity calls are given as the source filed them. The rule behind the calls is not given here. Bounds are passed on as bounds.

One may read the inhibition as how much of the control response was suppressed. For orientation: Papp means a coefficient for how fast a substance crosses the barrier.

Data set [1] in a line: Inhibition of Cu2+-induced human amyloid beta (1 to 42) aggregation at 25 uM after 24 hrs by thioflavin T-based fluorometric assay relative to control.
For data set [2], the target named is Amyloid-beta precursor protein (Homo sapiens) (UniProt P05067). Kind of data set: Inhibition of HFIP-pretreated human amyloid beta (1 to 42) self-induced aggregation at 25 uM measured after 24 hrs by thioflavin-T fluorescence assay relative to control.
Data set [3] in a line: Antioxidant activity assessed as trolox equivalents of AAPH radical scavenging activity at 1 to 10 uM preincubated for 15 mins followed by AAPH addition measured every min for 90 mins by ORAC-FL assay. The data set is classed as functional.
Data set [4] addresses Butyrylcholinesterase (BuChE) (Rattus norvegicus, UniProt Q9JKC1). Description: (§1) Inhibition of rat serum BuChE at 25 uM using butyrylthiocholine iodide as substrate after 15 mins by Ellman's method relative to control. Particulars: rat serum, probe butyrylthiocholine iodide.
The target of data set [5] is Acetylcholinesterase (Electrophorus electricus) (UniProt O42275). Description: Inhibition of Electrophorus electricus AChE at 50 uM using acetylthiocholine iodide as substrate measured after 15 mins by Ellman's method relative to control. (In general: In Ellman's method for cholinesterases, released thiocholine reacts with DTNB.)
Data set [6] relates to BV-2. Kind of data set: Cytotoxicity against LPS-stimulated mouse BV2 cells assessed as effect on cell viability at 0.5 to 10 uM pretreated for 30 mins followed by LPS-stimulation and measured after 24 hrs by MTT assay. To be noted: bv-2, 24 h. It is filed as cell-based.
A short description of data set [7]: Metal chelating activity of the compound assessed as formation of Zn2+-compound complex at 37.5 uM after 30 mins by UV-vis absorption spectra analysis.
A short description of data set [8]: Metal chelating activity of the compound assessed as formation of Fe2+-compound complex by measuring red shift in maximum absorption at 37.5 uM after 30 mins by UV-vis absorption spectra analysis.
Data set [9] is described as follows: Metal chelating activity of the compound assessed as formation of Cu2+-compound complex by measuring red shift in maximum absorption at 37.5 uM after 30 mins by UV-vis absorption spectra analysis.
Data set [10] can be described thus: Metal chelating activity of the compound assessed as formation of Al3+-compound complex by measuring red shift in maximum absorption at 37.5 uM after 30 mins by UV-vis absorption spectra analysis.
For data set [11], the system named is BV-2. Description: Inhibition of LPS-induced TNFalpha production in mouse BV2 cells at 0.5 uM pretreated for 30 mins followed by LPS-stimulation and measured after 24 hrs by ELISA relative to control. It is filed as functional. For orientation: In an ELISA, binding on a coated surface is turned into a signal by an enzyme label.
The nature of data set [12]: Permeability of the compound in pH 7.4 PBS/EtOH at 100 ug/ml after 18 hrs by PAMPA-BBB assay. (In general: PAMPA measures passive passage across an artificial lipid membrane.)
Data set [13] concerns BV-2. Description: Inhibition of LPS-induced nitric oxide production in mouse BV2 cells at 2.5 uM pretreated for 30 mins followed by LPS-stimulation and measured after 24 hrs by Griess assay relative to control. It is filed as functional.
Data set [14] deals with BV-2. Description: Inhibition of LPS-induced nitric oxide production in mouse BV2 cells at 10 uM pretreated for 30 mins followed by LPS-stimulation and measured after 24 hrs by Griess assay relative to control. The data set is classed as functional.
Data set [15] concerns BV-2. Kind of data set: Cytotoxicity against LPS-stimulated mouse BV2 cells assessed as effect on cell viability at 2.5 to 10 uM pretreated for 30 mins followed by LPS-stimulation and measured after 24 hrs by MTT assay. The data set is classed as cell-based. To be noted: bv-2, 24 h.
For data set [16], the system named is BV-2. Kind of data set: Cytotoxicity against mouse BV2 cells assessed as effect on cell viability up to 10 uM after 24 hrs by MTT assay. The data set is classed as cell-based. Particulars: bv-2, 24 h.
Data set [17] can be described thus: Metal chelating activity of the compound assessed as formation of Cu2+-compound complex by measuring absorbance at 37.5 uM after 30 mins by UV-vis absorption spectra analysis.
Data set [18] concerns BV-2. Description: Inhibition of LPS-induced TNFalpha production in mouse BV2 cells at 2.5 uM pretreated for 30 mins followed by LPS-stimulation and measured after 24 hrs by ELISA relative to control. It is filed as functional.
Data set [19] in a line: Metal chelating activity of the compound assessed as formation of Fe2+-compound complex by measuring absorbance at 37.5 uM after 30 mins by UV-vis absorption spectra analysis.
The subject of data set [20] is BV-2. Description: Inhibition of LPS-induced nitric oxide production in mouse BV2 cells at 0.5 uM pretreated for 30 mins followed by LPS-stimulation and measured after 24 hrs by Griess assay relative to control. The data set is classed as functional.
In data set [21] the test system is BV-2. Kind of data set: Inhibition of LPS-induced TNFalpha production in mouse BV2 cells at 10 uM pretreated for 30 mins followed by LPS-stimulation and measured after 24 hrs by ELISA relative to control. It is filed as functional.
Data set [22] concerns the target Butyrylcholinesterase (Rattus norvegicus, UniProt Q9JKC1). The data set is described as §1. Particulars: 0.25 h, 25 µM.

Chain of Acetylcholinesterase (Electrophorus electricus) (O42275 24-633 limits assumed): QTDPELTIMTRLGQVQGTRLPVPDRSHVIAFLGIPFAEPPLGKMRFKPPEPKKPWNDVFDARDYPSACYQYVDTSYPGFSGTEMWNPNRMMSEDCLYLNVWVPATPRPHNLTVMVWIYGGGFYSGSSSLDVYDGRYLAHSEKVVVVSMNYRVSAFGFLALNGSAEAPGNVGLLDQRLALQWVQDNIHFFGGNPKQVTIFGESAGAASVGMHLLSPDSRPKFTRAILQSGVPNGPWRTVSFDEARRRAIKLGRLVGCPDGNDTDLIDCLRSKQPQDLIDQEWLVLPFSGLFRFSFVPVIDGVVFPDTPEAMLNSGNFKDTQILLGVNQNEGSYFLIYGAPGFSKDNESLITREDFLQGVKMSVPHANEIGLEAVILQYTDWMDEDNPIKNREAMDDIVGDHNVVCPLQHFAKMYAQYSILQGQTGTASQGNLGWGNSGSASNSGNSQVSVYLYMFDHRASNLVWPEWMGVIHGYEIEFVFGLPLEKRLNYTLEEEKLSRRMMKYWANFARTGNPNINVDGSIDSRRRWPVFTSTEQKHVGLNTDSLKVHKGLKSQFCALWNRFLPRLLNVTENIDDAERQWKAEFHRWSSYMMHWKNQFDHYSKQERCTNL
Chain of Butyrylcholinesterase (BuChE) (Q9JKC1 whole entry): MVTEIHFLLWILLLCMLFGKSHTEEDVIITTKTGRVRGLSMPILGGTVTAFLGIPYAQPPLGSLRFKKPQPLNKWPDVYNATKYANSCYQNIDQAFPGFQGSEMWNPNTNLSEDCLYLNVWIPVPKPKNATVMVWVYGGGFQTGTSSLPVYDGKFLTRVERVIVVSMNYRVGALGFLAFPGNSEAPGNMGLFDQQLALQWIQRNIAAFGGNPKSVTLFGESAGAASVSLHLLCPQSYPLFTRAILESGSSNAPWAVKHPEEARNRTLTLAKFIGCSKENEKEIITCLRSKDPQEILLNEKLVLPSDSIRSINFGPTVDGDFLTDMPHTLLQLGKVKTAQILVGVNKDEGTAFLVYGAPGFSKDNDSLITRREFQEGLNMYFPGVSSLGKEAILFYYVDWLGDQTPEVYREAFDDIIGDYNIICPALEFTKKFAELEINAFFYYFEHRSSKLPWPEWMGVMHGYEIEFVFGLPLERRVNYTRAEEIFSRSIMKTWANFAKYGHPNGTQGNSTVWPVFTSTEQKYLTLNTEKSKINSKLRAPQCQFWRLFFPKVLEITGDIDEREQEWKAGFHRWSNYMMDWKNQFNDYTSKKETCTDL
Chain of Amyloid-beta precursor protein (Homo sapiens) (P05067 whole entry): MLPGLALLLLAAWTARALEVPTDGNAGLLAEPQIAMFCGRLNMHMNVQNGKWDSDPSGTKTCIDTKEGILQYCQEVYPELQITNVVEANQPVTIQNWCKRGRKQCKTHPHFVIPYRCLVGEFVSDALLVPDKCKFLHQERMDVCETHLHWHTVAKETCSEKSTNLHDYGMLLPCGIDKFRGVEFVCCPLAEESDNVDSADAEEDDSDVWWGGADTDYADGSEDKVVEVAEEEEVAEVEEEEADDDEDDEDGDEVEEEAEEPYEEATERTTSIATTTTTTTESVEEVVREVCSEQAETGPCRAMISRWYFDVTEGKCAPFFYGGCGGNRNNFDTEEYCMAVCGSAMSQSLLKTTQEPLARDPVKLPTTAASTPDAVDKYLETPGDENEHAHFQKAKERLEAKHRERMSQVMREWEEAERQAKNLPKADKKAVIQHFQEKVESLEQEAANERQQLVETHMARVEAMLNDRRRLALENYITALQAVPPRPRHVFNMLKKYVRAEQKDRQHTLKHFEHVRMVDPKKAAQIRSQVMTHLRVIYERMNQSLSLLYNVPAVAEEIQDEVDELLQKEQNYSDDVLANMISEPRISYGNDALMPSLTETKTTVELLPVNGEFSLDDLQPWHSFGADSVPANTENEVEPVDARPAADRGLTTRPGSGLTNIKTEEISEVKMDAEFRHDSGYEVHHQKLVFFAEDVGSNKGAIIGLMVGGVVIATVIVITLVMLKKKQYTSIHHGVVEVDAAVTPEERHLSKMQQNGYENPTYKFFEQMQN
Chain of Butyrylcholinesterase (Q9JKC1 whole entry): as the sequence (Q9JKC1 whole entry) above

As to `COc1cc(/C=C/C(=O)CC(=O)/C=C/c2ccc(O)c(OC)c2)ccc1O`, in data set [1], the inhibition is 67.2%.

Regarding `COC(=O)C(C)c1ccc(-c2ccc(O)c(CN3CCCC3)c2)c(F)c1` (stereo not drawn), the inhibition worked out at 15.8% in [2], 28.5% in [1] and 17% in data set [5]. In addition, in data set [3], the Activity was 2.13 µMequiv/µM. The same compound gave an inhibition at 0.25 h, 25 µM in data set [4] of 1.38%.

As to `COC(=O)C(C)c1ccc(-c2ccc(O)c(CN3CCN(C)CC3)c2)c(F)c1` (stereo not drawn), the results for the inhibition in data set [2], in data set [1] and in [5] were 34.1%, 16.2% and 13.3%, respectively. In addition, the Activity in data set [3] is 2.12 µMequiv/µM. The same compound registered an inhibition at 0.25 h, 25 µM in data set [4] of 1.12%.

For `CCN(Cc1ccc(N(C)C)cc1)Cc1cc(-c2ccc(C(C)C(=O)OC)cc2F)ccc1O` (stereo not drawn), the Activity result in [6] is “Non-Toxic”; in data set [8], 270 nm; in [9] it was 270 nm; in [10], 278 nm; in data set [3], 4.09 µMequiv/µM; in data set [15], “Non-Toxic”. For the same compound, the Activity entry in data set [16] was “Non-Toxic”; in [17] it was 0.1; in data set [19], 0.1. Besides, the outcome in data set [7] was inactive. Further, the results for the inhibition at 0.5 µM in data set [11] and in data set [20] were 25.3% and 28.3%, respectively. This compound also returned a Papp at 18 h, 100 ug/ml in data set [12] of 8.54 ×10⁻⁶ cm/s. In addition, the inhibition in data set [2] was 65%; in data set [1], 38%; in [5] it was 34.1%. For the same compound, the inhibition at 2.5 µM in data set [13] was 32.5%; in data set [18] it was 55.3%. In addition, the figures for the inhibition at 10 µM in data set [14] and in [21] were 65% and 68.2%, respectively. The inhibition at 0.25 h, 25 µM in [4] was 2.21%.

On to `CCN(Cc1ccccc1)Cc1cc(-c2ccc(C(C)C(=O)OC)cc2F)ccc1O` (stereo not drawn), for which the values for the inhibition in data set [2], in data set [1] and in data set [5] were 36.8%, 34.9% and 36.4%, respectively. In addition, the Activity in data set [3] stood at 2.24 µMequiv/µM. The compound further returned an inhibition at 0.25 h, 25 µM in data set [4] of 4.61%.

Turning to `COC(=O)C(C)c1ccc(-c2ccc(O)c(CN3CCCCC3)c2)c(F)c1` (stereo not drawn), the inhibition in data set [2] came to 15.5%; in [1] it was 11.2%; in [5], 22.9%. The Activity in data set [3] was 1.51 µMequiv/µM. This compound came in with an inhibition at 0.25 h, 25 µM in data set [4] of 1.95%.

`CCN1CCN(Cc2cc(-c3ccc(C(C)C(=O)OC)cc3F)ccc2O)CC1` (stereo not drawn): the figures for the inhibition in data set [2], in data set [1] and in [5] were 28.9%, 33.9% and 7.13%, respectively. For the same compound, the Activity in data set [3] stood at 2.16 µMequiv/µM. The inhibition at 0.25 h, 25 µM in [4] worked out at 4.28%.

In data set [1], `COc1cc2c(cc1OC)C(=O)C(CC1CCN(Cc3ccccc3)CC1)C2` (stereo not drawn) displayed an inhibition of less than 5%.

As for `COC(=O)C(C)c1ccc(-c2ccc(O)c(CN3CCN(Cc4ccccc4)CC3)c2)c(F)c1` (stereo not drawn), the inhibition in data set [2] was determined as 28.4%; in data set [1], 39.2%; in data set [5] it was 38.3%. For the same compound, the Activity in data set [3] was determined as 1.19 µMequiv/µM. The compound also gave an inhibition at 0.25 h, 25 µM in data set [4] of 2.86%.

With `COC(=O)C(C)c1ccc(-c2ccc(O)c(CN(C)C)c2)c(F)c1` (stereo not drawn), the Activity entry in data set [6] is “Non-Toxic”; in [3], 2.07 µMequiv/µM; in [15] it was “Non-Toxic”; in data set [16], “Non-Toxic”. Further, the figures for the inhibition at 0.5 µM in [11] and in data set [20] were 21.8% and 21.7%, respectively. Besides, the Papp at 18 h, 100 ug/ml in [12] was 6.78 ×10⁻⁶ cm/s. Also, the results for the inhibition in [2], in [1] and in data set [5] were 42.7%, 38.1% and 18.6%, respectively. Also, the figures for the inhibition at 2.5 µM in data set [13] and in [18] were 39.2% and 51.2%, respectively. Also, the inhibition at 10 µM in data set [14] was 61.7%; in data set [21] it was 72.9%. The same compound had an inhibition at 0.25 h, 25 µM in data set [4] of 2.56%.

Turning to `CC(C(=O)O)c1ccc(-c2ccccc2)c(F)c1` (stereo not drawn) [FLURBIPROFEN], in data set [12], the Papp at 18 h, 100 ug/ml is 1.56 ×10⁻⁶ cm/s. The inhibition in [2] was 12.8%; in [1] it was 7.56%; in data set [5], 15.6%. For the same compound, the results for the inhibition at 2.5 µM in data set [13] and in [18] were 11.8% and 9.6%, respectively. In addition, the Activity in data set [3] worked out at 0.18 µMequiv/µM. Further, the values for the inhibition at 10 µM in data set [14] and in data set [21] were 23% and 30.3%, respectively. For the same compound, the “inhibition (INH)” value in [22] is on record as “Not Active”.

As for `CCN(Cc1cc(-c2ccc(C(C)C(=O)OC)cc2F)ccc1O)Cc1ccccc1OC` (stereo not drawn), the results for the inhibition in data set [2], in data set [1] and in data set [5] were 60.5%, 42.5% and 28%, respectively. The Activity in data set [3] came out at 2.6 µMequiv/µM. The compound also showed an inhibition at 0.25 h, 25 µM in [4] of 5.12%.

For the compound `COC(=O)C(C)c1ccc(-c2ccc(O)c(CN3CCOCC3)c2)c(F)c1` (stereo not drawn), the inhibition in data set [2] amounted to 12.9%; in data set [1], 22.1%; in [5], 14.9%. In data set [3], the Activity is 2.14 µMequiv/µM. In addition, the inhibition at 0.25 h, 25 µM in [4] was determined as 1.19%.

With `COC(=O)C(C)c1ccc(-c2ccc(O)c(CN(C)Cc3ccccc3)c2)c(F)c1` (stereo not drawn), the inhibition in data set [2] is 36.7%; in data set [1] it was 31.2%; in data set [5] it was 35.1%. Also, in data set [3], the Activity stood at 1.59 µMequiv/µM. The inhibition at 0.25 h, 25 µM in [4] was 1.28%.

Regarding `CCN(Cc1cc(-c2ccc(C(C)C(=O)OC)cc2F)ccc1O)Cc1ccccc1N(C)C` (stereo not drawn), the inhibition in data set [2] was determined as 60.6%; in data set [1], 42.1%; in [5], 45.5%. For the same compound, in [3], the Activity worked out at 1.57 µMequiv/µM. The compound further gave an inhibition at 0.25 h, 25 µM in data set [4] of 16.3%.

With `COC(=O)C(C)c1ccc(-c2ccc(O)c(CN(C)Cc3ccccc3OC)c2)c(F)c1` (stereo not drawn), the inhibition was 60.6% in data set [2], 38.8% in data set [1] and 28% in data set [5]. Further, the Activity in data set [3] came out at 2.12 µMequiv/µM. The same compound yielded an inhibition at 0.25 h, 25 µM in data set [4] of 3.06%.

Take `CCN(CC)Cc1cc(-c2ccc(C(C)C(=O)OC)cc2F)ccc1O` (stereo not drawn): the inhibition in [2] is 8.3%; in data set [1], 29.7%; in [5], 14.3%. The Activity in data set [3] is 1.81 µMequiv/µM. Moreover, the inhibition at 0.25 h, 25 µM in data set [4] worked out at 1.58%.
